Source: the supplement of paper PMC10883282

Columns and labels:
Test in all cases: relative viability vs DMSO control (72 h) (fraction); higher = more viable cells
[1] = tested on: RD-ES
Method in brief: (§1)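 Sarcoma cell lines were grown in 384-well plates seeded toward 80–90% confluence and exposed 24 h later to serially diluted compound. After 72 h at 37 °C and 5% CO2, with 0.1% DMSO vehicle and a 5 µM positive control on the plates, ATPLite was read. Relative viability, given as percent growth averaged over up to triplicate wells, was rescaled so that 1 is full and 0 is none.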

[2] = tested on: HS729
Method in brief: as §1

[3] = tested on: RD
Method in brief: as §1

[4] = tested on: HT1080
Method in brief: as §1

[5] = tested on: SW684
Method in brief: as §1

[6] = tested on: SW1353
Method in brief: as §1

[7] = tested on: KHOS-240S
Method in brief: as §1

[8] = tested on: SYO-1
Method in brief: as §1

[9] = tested on: KHOS-NP
Method in brief: as §1

[10] = tested on: SW872
Method in brief: as §1

[11] = tested on: SK-LMS-1
Method in brief: as §1

[12] = tested on: G401
Method in brief: as §1

CC(C)(O)CNc1nc(Nc2ccnc(C(F)(F)F)c2)nc(-c2cccc(C(F)(F)F)n2)n1 [Enasidenib]
Conditions | relative viability
[1], 0.00017 µM | 0.965
[1], 0.00051 µM | 1
[1], 0.00152 µM | 1.02
[1], 0.00457 µM | 1.01
[1], 0.01372 µM | 1.012
[1], 0.04115 µM | 0.9861
[1], 0.1235 µM | 1.01
[1], 0.3704 µM | 1.02
[1], 1.111 µM | 1.01
[1], 3.333 µM | 1.02
[1], 10 µM | 1
[2], 0.00017 µM | 0.966
[2], 0.00051 µM | 0.974
[2], 0.00152 µM | 0.995
[2], 0.00457 µM | 1
[2], 0.01372 µM | 1.002
[2], 0.04115 µM | 0.985
[2], 0.1235 µM | 1.02
[2], 0.3704 µM | 0.941
[2], 1.111 µM | 0.994
[2], 3.333 µM | 1.01
[2], 10 µM | 0.928
[3], 0.00017 µM | 1.11
[3], 0.00051 µM | 1.125
[3], 0.00152 µM | 1.11
[3], 0.00457 µM | 1.08
[3], 0.01372 µM | 1.1
[3], 0.04115 µM | 1.1
[3], 0.1235 µM | 1.11
[3], 0.3704 µM | 1.08
[3], 1.111 µM | 1.09
[3], 3.333 µM | 1.09
[3], 10 µM | 1.04
[4], 0.00017 µM | 1.07
[4], 0.00051 µM | 1.076
[4], 0.00152 µM | 1.08
[4], 0.00457 µM | 1.07
[4], 0.01372 µM | 1.042
[4], 0.04115 µM | 1.064
[4], 0.1235 µM | 1.05
[4], 0.3704 µM | 1.1
[4], 1.111 µM | 1.16
[4], 3.333 µM | 1.11
[4], 10 µM | 0.978
[5], 0.00017 µM | 1.22
[5], 0.00051 µM | 1.21
[5], 0.00152 µM | 1.18
[5], 0.00457 µM | 1.179
[5], 0.01372 µM | 1.19
[5], 0.04115 µM | 1.2
[5], 0.1235 µM | 1.2
[5], 0.3704 µM | 1.17
[5], 1.111 µM | 1.21
[5], 3.333 µM | 1.11
[5], 10 µM | 1.01
[6], 0.00017 µM | 0.997
[6], 0.00051 µM | 1.03
[6], 0.00152 µM | 0.99
[6], 0.00457 µM | 1.02
[6], 0.01372 µM | 1.03
[6], 0.04115 µM | 1.01
[6], 0.1235 µM | 1.01
[6], 0.3704 µM | 1.04
[6], 1.111 µM | 0.9847
[6], 3.333 µM | 0.994
[6], 10 µM | 0.86
[7], 0.00017 µM | 1.08
[7], 0.00051 µM | 1.06
[7], 0.00152 µM | 1.053
[7], 0.00457 µM | 1.06
[7], 0.01372 µM | 1.08
[7], 0.04115 µM | 1.073
[7], 0.1235 µM | 1.09
[7], 0.3704 µM | 1.09
[7], 1.111 µM | 1.09
[7], 3.333 µM | 1.081
[7], 10 µM | 0.989
[8], 0.00017 µM | 0.969
[8], 0.00051 µM | 0.959
[8], 0.00152 µM | 0.987
[8], 0.00457 µM | 0.982
[8], 0.01372 µM | 0.973
[8], 0.04115 µM | 0.992
[8], 0.1235 µM | 0.996
[8], 0.3704 µM | 0.979
[8], 1.111 µM | 0.624
[8], 3.333 µM | 0.968
[8], 10 µM | 0.828
[9], 0.00017 µM | 1.09
[9], 0.00051 µM | 1.1
[9], 0.00152 µM | 1.091
[9], 0.00457 µM | 1.09
[9], 0.01372 µM | 1.08
[9], 0.04115 µM | 1.08
[9], 0.1235 µM | 1.08
[9], 0.3704 µM | 1.06
[9], 1.111 µM | 1.04
[9], 3.333 µM | 1.06
[9], 10 µM | 1.05
[10], 0.00017 µM | 1.04
[10], 0.00051 µM | 1.07
[10], 0.00152 µM | 1.08
[10], 0.00457 µM | 1.07
[10], 0.01372 µM | 1.08
[10], 0.04115 µM | 1.06
[10], 0.1235 µM | 1.06
[10], 0.3704 µM | 1.068
[10], 1.111 µM | 1.07
[10], 3.333 µM | 1.07
[10], 10 µM | 1.06
[11], 0.00017 µM | 1.03
[11], 0.00051 µM | 0.979
[11], 0.00152 µM | 1.01
[11], 0.00457 µM | 1.02
[11], 0.01372 µM | 1.01
[11], 0.04115 µM | 1.01
[11], 0.1235 µM | 1.02
[11], 0.3704 µM | 1.06
[11], 1.111 µM | 1.13
[11], 3.333 µM | 1.11
[11], 10 µM | 0.83
[12], 0.00017 µM | 0.984
[12], 0.00051 µM | 0.973
[12], 0.00152 µM | 0.984
[12], 0.00457 µM | 1.03
[12], 0.01372 µM | 1.025
[12], 0.04115 µM | 1.01
[12], 0.1235 µM | 1.05
[12], 0.3704 µM | 1.02
[12], 1.111 µM | 0.98
[12], 3.333 µM | 0.994
[12], 10 µM | 0.958
